Reference: the supplement of paper PMC11061612

Legend:
EW-24 (Ewing's Sarcoma) = assay: combination Emax (second highest fraction inhibited in the dose matrix, 72 h); higher = more inhibition; extreme values may be limits of the assay
Summary of the method: (§1)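 Cell lines grown in DMEM/F12 or RPMI with 10% FBS were plated in 1536-well plates and held 24 hours at 37°C, 5% CO2 before 72 hours of exposure to two-drug dose matrices, with DMSO typically at 0.2%. CellTiter-Glo 2.0 luminescence gave viability, which was converted to inhibition. Vehicle wells were set to 0 and blank wells to 1. Combination Emax is the second-highest inhibition in the matrix, and Bliss excess is the observed combination effect minus the expected EA + EB − EA·EB, where EA and EB are the single-agent effects.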

[1] = tested on: RF-48 (B-Cell Non-Hodgkin's Lymphoma); assay: as above
Summary of the method: as §1

[2] = tested on: PANC-04-03 (Pancreatic Carcinoma); assay: as above
Summary of the method: as §1

ACHN (Kidney Carcinoma) [3] = assay: as above
Summary of the method: as §1

[4] = tested on: KYSE-450 (Esophageal Squamous Cell Carcinoma); assay: as above
Summary of the method: as §1

[5] = tested on: KARPAS-299 (T-Cell Non-Hodgkin's Lymphoma); assay: Bliss excess, mean over the matrix (fraction); higher = more synergy
Summary of the method: as §1

[6] = tested on: Hs-766T (Pancreatic Carcinoma); assay: as above
Summary of the method: as §1

[7] = tested on: PANC-04-03 (Pancreatic Carcinoma); assay: as above
Summary of the method: as §1

[8] = tested on: Caov-4 (Ovarian Carcinoma); assay: as above
Summary of the method: as §1

[9] = tested on: Ca9-22 (Head and Neck Carcinoma); assay: as above
Summary of the method: as §1

[10] = tested on: NCI-H358 (Lung Adenocarcinoma); assay: as above
Summary of the method: as §1

[11] = tested on: EFM-19 (Breast Carcinoma); assay: as above
Summary of the method: as §1

D-263MG (Glioblastoma) = assay: as above
Summary of the method: as §1

ACHN (Kidney Carcinoma) [12] = assay: as above
Summary of the method: as §1

NB69 (Neuroblastoma) = assay: as above
Summary of the method: as §1

TGW (Neuroblastoma) = assay: as above
Summary of the method: as §1

TK10 (Kidney Carcinoma) = assay: as above
Summary of the method: as §1

[13] = tested on: EoL-1-cell (Acute Myeloid Leukemia); assay: as above
Summary of the method: as §1

[14] = tested on: MIA-PaCa-2 (Pancreatic Carcinoma); assay: as above
Summary of the method: as §1

[15] = tested on: MLMA (Other Blood Carcinomas); assay: as above
Summary of the method: as §1
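Throughout, for Bliss excess, mean over the matrix: after 72 h of two-drug dosing.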

Cc1cc2ncnn2cc1Nc1ncc2c(n1)n(C1CCOCC1)c(=O)n2C [AZD7648] + O=C(c1cc(Cc2n[nH]c(=O)c3ccccc23)ccc1F)N1CCN(C(=O)C2CC2)CC1 [Olaparib] (first compound max 10 µM, 7x7, partner max 10 µM)
combination Emax (EW-24 (Ewing's Sarcoma)): 0.214
combination Emax [1]: 0.322
combination Emax [2]: 0.183
combination Emax (ACHN (Kidney Carcinoma) [3]): 0.211
combination Emax [4]: 0.0972
Bliss excess [5]: -0.0098
Bliss excess [6]: -0.0491
Bliss excess [7]: -0.0369
Bliss excess [8]: -0.015
Bliss excess [9]: -0.0072
Bliss excess [10]: -0.0179
Bliss excess [11]: -0.0652
Bliss excess (D-263MG (Glioblastoma)): -0.0367
Bliss excess (ACHN (Kidney Carcinoma) [12]): -0.0243
Bliss excess (NB69 (Neuroblastoma)): -0.0397
Bliss excess (TGW (Neuroblastoma)): -0.0248
Bliss excess (TK10 (Kidney Carcinoma)): -0.0843
Bliss excess [13]: 0.0142
Bliss excess [14]: -0.0246
Bliss excess [15]: -0.0087

N#Cc1cnc(Nc2cc(NC[C@H]3CNCCO3)c(C(F)(F)F)cn2)cn1 [SRA737] + Nc1ccn([C@@H]2O[C@H](CO)[C@@H](O)C2(F)F)c(=O)n1 [Gemcitabine] (first compound max 10 µM, 7x7, partner max 0.3 µM)
combination Emax (EW-24 (Ewing's Sarcoma)): 0.691
combination Emax [1]: 0.746
combination Emax [2]: 0.597
combination Emax (ACHN (Kidney Carcinoma) [3]): 0.821
combination Emax [4]: 0.83
Bliss excess [5]: 0.0707
Bliss excess [6]: 0.003
Bliss excess [7]: -0.0036
Bliss excess [8]: 0.0158
Bliss excess [9]: 0.122
Bliss excess [10]: -0.0054
Bliss excess [11]: 0.0489
Bliss excess (D-263MG (Glioblastoma)): 0.0556
Bliss excess (ACHN (Kidney Carcinoma) [12]): -0.0356
Bliss excess (NB69 (Neuroblastoma)): 0.0366
Bliss excess (TGW (Neuroblastoma)): -0.0301
Bliss excess (TK10 (Kidney Carcinoma)): -0.0589
Bliss excess [13]: 0.0316
Bliss excess [14]: 0.124
Bliss excess [15]: -0.0924

Cc1cc2ncnn2cc1Nc1ncc2c(n1)n(C1CCOCC1)c(=O)n2C [AZD7648] + C=CCn1c(=O)c2cnc(Nc3ccc(N4CCN(C)CC4)cc3)nc2n1-c1cccc(C(C)(C)O)n1 [AZD1775] (first compound max 10 µM, partner max 1 µM)
combination Emax (EW-24 (Ewing's Sarcoma)): 0.458
combination Emax [1]: 0.532
combination Emax [2]: 0.555
combination Emax (ACHN (Kidney Carcinoma) [3]): 0.893
combination Emax [4]: 0.638
Bliss excess [5]: 0.0072
Bliss excess [6]: -0.0274
Bliss excess [7]: 0.0135
Bliss excess [8]: 0.0222
Bliss excess [9]: 0.022
Bliss excess [10]: -0.0156
Bliss excess [11]: -0.0596
Bliss excess (D-263MG (Glioblastoma)): 0.0037
Bliss excess (ACHN (Kidney Carcinoma) [12]): -0.0178
Bliss excess (NB69 (Neuroblastoma)): -0.0504
Bliss excess (TGW (Neuroblastoma)): -0.0505
Bliss excess (TK10 (Kidney Carcinoma)): 0.0668
Bliss excess [13]: 0.0137
Bliss excess [14]: -0.0459
Bliss excess [15]: -0.0665

CN(CCO)CC[C@H](CSc1ccccc1)Nc1ccc(S(=O)(=O)NC(=O)c2ccc(N3CCC([C@@H](O)c4ccccc4-c4ccc(Cl)cc4)CC3)cc2)cc1S(=O)(=O)C(F)(F)F [AZD4320] + CC(=O)O[C@H]1C(=O)[C@@]2(C)[C@H]([C@H](OC(=O)c3ccccc3)[C@]3(O)C[C@H](OC(=O)[C@H](O)[C@@H](NC(=O)c4ccccc4)c4ccccc4)C(C)=C1C3(C)C)[C@]1(OC(C)=O)CO[C@@H]1C[C@@H]2O [Paclitaxel] (first compound max 1 µM, 7x7, partner max 3 µM)
combination Emax (EW-24 (Ewing's Sarcoma)): 0.968
combination Emax [1]: 0.989
combination Emax [2]: 0.585
combination Emax (ACHN (Kidney Carcinoma) [3]): 0.71
combination Emax [4]: 0.875
Bliss excess [5]: -0.079
Bliss excess [6]: -0.0002
Bliss excess [7]: -0.0033
Bliss excess [8]: 0.0863
Bliss excess [9]: 0.037
Bliss excess [10]: 0.0117
Bliss excess [11]: 0.0898
Bliss excess (D-263MG (Glioblastoma)): 0.102
Bliss excess (ACHN (Kidney Carcinoma) [12]): -0.0319
Bliss excess (NB69 (Neuroblastoma)): 0.0148
Bliss excess (TGW (Neuroblastoma)): -0.0472
Bliss excess (TK10 (Kidney Carcinoma)): 0.0195
Bliss excess [13]: -0.0057
Bliss excess [14]: 0.0064
Bliss excess [15]: 0.0254

Cc1cc2ncnn2cc1Nc1ncc2c(n1)n(C1CCOCC1)c(=O)n2C [AZD7648] + CN(C)CCCOc1ccc(-c2ccc3ncc4c(c3c2)n(C2CCOCC2)c(=O)n4C)cn1 [AZD0156] (first compound max 10 µM, 7x7, partner max 1 µM)
combination Emax (EW-24 (Ewing's Sarcoma)): 0.364
combination Emax [1]: 0.349
combination Emax [2]: 0.347
combination Emax (ACHN (Kidney Carcinoma) [3]): 0.293
combination Emax [4]: 0.252
Bliss excess [5]: 0.0477
Bliss excess [6]: -0.0324
Bliss excess [7]: 0.0016
Bliss excess [8]: 0.0511
Bliss excess [9]: 0.0625
Bliss excess [10]: 0.0054
Bliss excess [11]: -0.0815
Bliss excess (D-263MG (Glioblastoma)): 0.005
Bliss excess (ACHN (Kidney Carcinoma) [12]): 0.0104
Bliss excess (NB69 (Neuroblastoma)): -0.0382
Bliss excess (TGW (Neuroblastoma)): 0.0804
Bliss excess (TK10 (Kidney Carcinoma)): 0.013
Bliss excess [13]: 0.0279
Bliss excess [14]: -0.003
Bliss excess [15]: -0.0187

Cc1nc(Nc2ncc(C(=O)Nc3c(C)cccc3Cl)s2)cc(N2CCN(CCO)CC2)n1 [Dasatinib] + CC(=O)Nc1cccc(-n2c(=O)n(C3CC3)c(=O)c3c(Nc4ccc(I)cc4F)n(C)c(=O)c(C)c32)c1 [Trametinib] (first compound max 2 µM, 7x7, partner max 1 µM)
combination Emax (EW-24 (Ewing's Sarcoma)): 0.171
combination Emax [1]: 0.414
combination Emax [2]: 0.781
combination Emax (ACHN (Kidney Carcinoma) [3]): 0.749
combination Emax [4]: 0.382
Bliss excess [5]: 0.0122
Bliss excess [6]: 0.0971
Bliss excess [7]: 0.0163
Bliss excess [8]: -0.125
Bliss excess [9]: 0.0313
Bliss excess [10]: 0.004
Bliss excess [11]: -0.0957
Bliss excess (D-263MG (Glioblastoma)): -0.031
Bliss excess (ACHN (Kidney Carcinoma) [12]): -0.0707
Bliss excess (NB69 (Neuroblastoma)): 0.0099
Bliss excess (TGW (Neuroblastoma)): -0.0621
Bliss excess (TK10 (Kidney Carcinoma)): 0.0159
Bliss excess [13]: -0.0157
Bliss excess [14]: 0.156
Bliss excess [15]: -0.0324

Cc1cc2ncnn2cc1Nc1ncc2c(n1)n(C1CCOCC1)c(=O)n2C [AZD7648] + CCN(CCO)CCCOc1ccc2c(Nc3cc(CC(=O)Nc4cccc(F)c4)[nH]n3)ncnc2c1 [AZD2811] (first compound max 10 µM, 7x7, partner max 1 µM)
combination Emax (EW-24 (Ewing's Sarcoma)): 0.45
combination Emax [1]: 0.303
combination Emax [2]: 0.284
combination Emax (ACHN (Kidney Carcinoma) [3]): 0.329
combination Emax [4]: 0.343
Bliss excess [5]: 0.0493
Bliss excess [6]: -0.0197
Bliss excess [7]: -0.0078
Bliss excess [8]: 0.0293
Bliss excess [9]: 0.0541
Bliss excess [10]: -0.0718
Bliss excess [11]: 0.116
Bliss excess (D-263MG (Glioblastoma)): 0.0415
Bliss excess (ACHN (Kidney Carcinoma) [12]): -0.0051
Bliss excess (NB69 (Neuroblastoma)): -0.0195
Bliss excess (TGW (Neuroblastoma)): 0.0148
Bliss excess (TK10 (Kidney Carcinoma)): 0.0024
Bliss excess [13]: -0.0572
Bliss excess [14]: 0.0108
Bliss excess [15]: -0.0095
